Tests used:
rat TAAR1 = rat TAAR1 (Rattus norvegicus (Rat), UniProt Q923Y9); test: Radioligand binding assay on rat TAAR1; conditions: rat TAAR1, membranes of stably transfected HEK-293 cells; second value of mouse/rat pair
Procedure: (§1) Construction of TAAR Expression Plasmids and Stably Transfected Cell Lines
(§2) For the construction of expression plasmids the coding sequences of human, rat and mouse TAAR 1 were amplified from genomic DNA essentially as described by Lindemann et al.. The Expand High Fidelity PCR System (Roche Diagnostics) was used with 1.5 mM Mg^2+ and purified PCR products were cloned into pCR2.1-TOPO cloning vector (Invitrogen) following the instructions of the manufacturer. PCR products were subcloned into the pIRESneo2 vector (BD Clontech, Palo Alto, Calif.), and expression vectors were sequence verified before introduction in cell lines.
(§3) HEK293 cells (ATCC # CRL-1573) were cultured essentially as described by Lindemann et al. (2005). For the generation of stably transfected cell lines HEK293 cells were transfected with the pIRESneo2 expression plasmids containing the TAAR coding sequences (described above) with Lipofectamine 2000 (Invitrogen) according to the instructions of the manufacturer, and 24 hrs post transfection the culture medium was supplemented with 1 mg/ml G418 (Sigma, Buchs, Switzerland). After a culture period of about 10 d clones were isolated, expanded and tested for responsiveness to trace amines (all compounds purchased from Sigma) with the cAMP Biotrak Enzyme immunoassay (EIA) System (Amersham) following the non-acetylation EIA procedure provided by the manufacturer.
Radioligand Binding Assay on Rat TAAR1
(§4) Membrane Preparation and Radioligand Binding.
(§5) HEK-293 cells stably expressing rat TAAR1 were maintained at 37° C. and 5% CO2 in DMEM high glucose medium, containing fetal calf serum (10%, heat inactivated for 30 min at 56° C.), penicillin/streptomycin (1%), and 375 μg/ml geneticin (Gibco). Cells were released from culture flasks using trypsin/EDTA, harvested, washed twice with ice-cold PBS (without Ca^2+ and Mg^2+), pelleted at 1′000 rpm for 5 min at 4° C., frozen and stored at −80° C. Frozen pellets were suspended in 20 ml HEPES-NaOH (20 mM, pH 7.4) containing 10 mM EDTA and homogenized with a Polytron (PT 6000, Kinematica) at 14,000 rpm for 20 s. The homogenate was centrifuged at 48,000×g for 30 min at 4° C. Subsequently, the supernatant was removed and discarded, and the pellet resuspended in 20 ml HEPES-NaOH (20 mM, pH 7.4) containing 0.1 mM EDTA using the Polytron (20 s at 14,000 rpm). This procedure was repeated and the final pellet resuspended in HEPES-NaOH containing 0.1 mM EDTA and homogenized using the Polytron. Typically, aliquots of 2 ml membrane portions were stored at −80° C. With each new membrane batch the dissociation constant (Kd) was determined via a saturation curve. […] Nonspecific binding was defined as the amount of [H]—(S)-4-[(ethyl-phenyl-amino)-methyl]-4,5-dihydro-oxazol-2-ylamine bound in the presence of 10 μM unlabeled ligand. All compounds were tested at a broad range of concentrations (10 pM to 10 μM) in duplicates. […] The 96 deep well plates were incubated for 1 hr at 4° C. Incubations were terminated by rapid filtration through Unifilter-96 plates (Packard Instrument Company) and glass filters GF/C (Perkin Elmer) presoaked for 1 hr in polyethylenimine (0.3%) and washed 3 times with 1 ml of cold binding buffer. After addition of 45 μl of Microscint 40 (PerkinElmer) the Unifilter-96 plate was sealed and after 1 hr the radioactivity counted using a TopCount Microplate Scintillation Counter (Packard Instrument Company).

mouse TAAR1 = mouse TAAR1 (Mus musculus (Mouse), UniProt Q923Y8); test: Radioligand binding assay on mouse TAAR1; conditions: mouse TAAR1, membranes of stably transfected HEK-293 cells; first value of mouse/rat pair
Sequence of mouse TAAR1 (Q923Y8 whole entry): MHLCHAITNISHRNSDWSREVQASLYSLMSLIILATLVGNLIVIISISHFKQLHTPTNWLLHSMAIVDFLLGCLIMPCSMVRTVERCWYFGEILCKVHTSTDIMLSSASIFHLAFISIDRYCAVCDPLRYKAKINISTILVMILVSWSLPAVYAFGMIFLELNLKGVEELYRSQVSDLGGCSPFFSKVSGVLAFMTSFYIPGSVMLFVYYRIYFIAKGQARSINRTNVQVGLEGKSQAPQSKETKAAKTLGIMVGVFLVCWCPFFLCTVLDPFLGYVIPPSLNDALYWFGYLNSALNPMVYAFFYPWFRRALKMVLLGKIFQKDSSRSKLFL
Procedure: as §1, §2, §3
Radioligand Binding Assay on Mouse TAAR1
as §4
as §5, with “expressing mouse” for “expressing rat”, “of ^3[H]—(S)-4-[(ethyl-phenyl-amino)-methyl]-4,5-dihydro-oxazol-2-ylamine” for “of [H]—(S)-4-[(ethyl-phenyl-amino)-methyl]-4,5-dihydro-oxazol-2-ylamine”

Sequence of rat TAAR1 (Q923Y9 whole entry): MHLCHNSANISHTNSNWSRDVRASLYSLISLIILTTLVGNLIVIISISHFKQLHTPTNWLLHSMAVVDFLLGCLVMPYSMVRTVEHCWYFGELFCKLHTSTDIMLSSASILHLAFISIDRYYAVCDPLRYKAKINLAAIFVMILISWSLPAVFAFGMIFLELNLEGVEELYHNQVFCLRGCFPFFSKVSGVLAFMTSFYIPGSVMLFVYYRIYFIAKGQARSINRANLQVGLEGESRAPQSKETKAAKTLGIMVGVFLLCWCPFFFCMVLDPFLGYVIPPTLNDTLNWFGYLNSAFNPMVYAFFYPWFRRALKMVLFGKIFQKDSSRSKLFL

Row | Ki (rat TAAR1) [µM] | Ki (mouse TAAR1) [µM] | SMILES
1 | 0.0023 | 0.0045 | N[C@H]1CCc2cc(NC(=O)Nc3ccc(C(F)(F)F)nc3)ccc2C1 [Example 16, (S)-1-(6-Amino-5,6,7,8-tetrahydronaphthalen-2-yl)-3-(6-(trifluoromethyl)pyridin-3-yl)urea]
2 | 0.0016 | 0.0033 | N[C@H]1CCc2cc(NC(=O)c3ccc(OCC(F)(F)F)nc3)ccc2C1 [Example 22, (S)—N-(6-Amino-5,6,7,8-tetrahydronaphthalen-2-yl)-6-(2,2,2-trifluoroethoxy)nicotinamide]
3 | 0.0544 | 0.232 | Cc1cc(C(=O)Nc2ccc3c(c2)CC[C@@H](N)C3)nc(C(F)(F)F)n1 [Example 6, (R)—N-(6-Amino-5,6,7,8-tetrahydronaphthalen-2-yl)-6-methyl-2-(trifluoromethyl)-pyrimidine-4-carboxamide]
4 | 0.0196 | 0.0163 | N[C@H]1COc2cc(Nc3ncc(C(F)(F)F)cn3)ccc2C1 [Example 80, (R)—N7-(5-(Trifluoromethyl)pyrimidin-2-yl)chroman-3,7-diamine]
5 | 0.095 | 0.0355 | N[C@H]1CCc2cc(NC(=O)NCc3ccc(Cl)cn3)ccc2C1 [Example 62, (S)-1-(6-Amino-5,6,7,8-tetrahydronaphthalen-2-yl)-3-((5-chloropyridin-2-yl)methyl)urea]
6 | 0.241 | 1.45 | Cc1cc(C(=O)Nc2ccc3c(c2)OC[C@@H](N)C3)nc(C(F)(F)F)n1 [Example 13, (S)—N-(3-Aminochroman-7-yl)-6-methyl-2-(trifluoromethyl)pyrimidine-4-carboxamide]
7 | 0.0374 | 0.042 | N[C@H]1COc2cc(Nc3ncc(Cl)cn3)ccc2C1 [Example 93, (R)—N7-(5-Chloropyrimidin-2-yl)chroman-3,7-diamine]
8 | 0.0243 | 0.0088 | Cc1cc(C(=O)Nc2ccc3c(c2)OC[C@H](N)C3)cc(Cl)n1 [Example 89, (R)—N-(3-Aminochroman-7-yl)-2-chloro-6-methylisonicotinamide]
9 | 0.0434 | 0.0247 | CCOc1ccc(NC(=O)c2ccc3c(c2)CCC(N)C3)cn1 (stereo not drawn) [Example 31, 6-Amino-N-(6-ethoxypyridin-3-yl)-5,6,7,8-tetrahydronaphthalene-2-carboxamide]
10 | 0.0096 | 0.0091 | N[C@H]1COc2cc(NC(=O)c3ccnc(C(F)(F)F)c3)ccc2C1 [Example 90, (R)—N-(3-Aminochroman-7-yl)-2-(trifluoromethyl)isonicotinamide]
11 | 0.0096 | 0.187 | CCCc1cc(C(=O)Nc2ccc3c(c2)OC[C@@H](N)C3)nn1CC(F)F [Example 11, (S)—N-(3-Aminochroman-7-yl)-1-(2,2-difluoroethyl)-5-propyl-1H-pyrazole-3-carboxamide]
12 | 0.0021 | 0.0067 | CCCc1cc(C(=O)Nc2ccc3c(c2)CC[C@H](N)C3)nn1CC(F)F [Example 5, (S)—N-(6-Amino-5,6,7,8-tetrahydronaphthalen-2-yl)-1-(2,2-difluoroethyl)-5-propyl-1H-pyrazole-3-carboxamide]
13 | 0.0063 | 0.0117 | N[C@H]1CCc2cc(NC(=O)c3ccnc(C(F)(F)F)c3)ccc2C1 [Example 45, (S)—N-(6-Amino-5,6,7,8-tetrahydronaphthalen-2-yl)-2-(trifluoromethyl)isonicotinamide]
14 | 0.0189 | 0.0009 | N[C@H]1COc2cc(NC(=O)c3ccc(F)c(F)c3)ccc2C1 [Example 87, (R)—N-(3-Aminochroman-7-yl)-3,4-difluorobenzamide]
15 | 0.0042 | 0.0077 | NC1CCc2cc(NC(=O)c3n[nH]c(C4CC4)c3Br)ccc2C1 (stereo not drawn) [Example 2, N-(6-Amino-5,6,7,8-tetrahydronaphthalen-2-yl)-4-bromo-5-cyclopropyl-1H-pyrazole-3-carboxamide]
16 | 0.001 | 0.0006 | N[C@H]1CCc2cc(NC(=O)c3ccc4ccccc4c3)ccc2C1 [Example 43, (S)—N-(6-Amino-5,6,7,8-tetrahydronaphthalen-2-yl)-2-naphthamide]
17 | 0.01 | 0.0198 | CCCc1cc(C(=O)Nc2ccc3c(c2)OCC(N)C3)nn1CC(F)F (stereo not drawn) [Example 8, N-(3-Aminochroman-7-yl)-1-(2,2-difluoroethyl)-5-propyl-1H-pyrazole-3-carboxamide]
18 | 0.0034 | 0.0018 | Cc1nc(-c2ccc(C(=O)Nc3ccc4c(c3)OC[C@H](N)C4)cc2)cs1 [Example 83, (R)—N-(3-Aminochroman-7-yl)-4-(2-methylthiazol-4-yl)benzamide]

Row | SMILES | Ki (rat TAAR1) [µM] | Ki (mouse TAAR1) [µM]
19 | Cc1onc(C(=O)Nc2ccc3c(c2)CC[C@H](N)C3)c1Cl [Example 26, (S)—N-(6-Amino-5,6,7,8-tetrahydronaphthalen-2-yl)-4-chloro-5-methylisoxazole-3-carboxamide] | 0.0199 | 0.0049
20 | N[C@H]1CCc2cc(Nc3ccc(C4CC4)cc3)ccc2C1 [Example 73, (S)—N6-(4-Cyclopropylphenyl)-1,2,3,4-tetrahydronaphthalene-2,6-diamine] | 0.0081 | 0.01
21 | N#Cc1ccc(NC(=O)c2ccc3c(c2)CCC(N)C3)cc1 (stereo not drawn) [Example 70] | 0.0032 | 0.0044
22 | CCc1ccc(Nc2ccc3c(c2)CC[C@H](N)C3)cc1 [Example 53, (S)—N6-(4-Ethylphenyl)-1,2,3,4-tetrahydronaphthalene-2,6-diamine] | 0.0083 | 0.006
23 | N[C@H]1CCc2cc(NC(=O)Nc3ccc(Cl)cc3)ccc2C1 [Example 74, (S)-1-(6-Amino-5,6,7,8-tetrahydronaphthalen-2-yl)-3-(4-chlorophenyl)urea] | 0.0005 | 0.001
24 | N[C@H]1CCc2cc(Nc3ccc(C(F)(F)F)cn3)ccc2C1 [Example 38, (S)—N6-(5-(Trifluoromethyl)pyridin-2-yl)-1,2,3,4-tetrahydronaphthalene-2,6-diamine] | 0.0021 | 0.0032
25 | N[C@@H]1CCc2cc(NC(=O)c3ccccc3Cl)ccc2C1 [Example 15, (R)—N-(6-Amino-5,6,7,8-tetrahydronaphthalen-2-yl)-2-chlorobenzamide] | 0.6 | 1.97
26 | N[C@H]1CCc2cc(NCc3ccc(Cl)cc3)ccc2C1 [Example 75, (S)—N6-(4-Chlorobenzyl)-1,2,3,4-tetrahydronaphthalene-2,6-diamine] |  | 0.0048

Reference: patent US9957261B2 (Hoffmann-La Roche Inc., priority 2014, dated 2018)
